{"source": "ChEMBL document CHEMBL5370534", "about": "“Discovery of novel triazine derivatives as potent retinoic acid receptor-related orphan receptor γt (RORγt) inverse agonists” (Eur J Med Chem, 2023)"}
{"system": "not listed separately", "assay": "Half life in mouse liver microsomes at 1 mM in presence of NADPH by HPLC-MS/MS analysis", "parameters": "dose or concentration left out as unconfirmed", "details": "not given", "units": {"half-life": "min"}}
{"smiles": "CC(=O)Nc1ccc(Nc2nc(Oc3c(Cl)cccc3C(F)(F)F)nc(-c3ccc(C(F)(F)F)cc3)n2)cc1", "half-life": 17.8}
{"smiles": "O=C(O)c1ccc(Nc2nc(Oc3c(Cl)cccc3Cl)nc(-c3ccc(C(F)(F)F)cc3)n2)cc1", "half-life": "> 145"}
{"system": "Mus musculus", "assay": "Antiinflammatory activity against imiquimod-induced psoriasis BALB/c mouse model assessed as reduction in psoriasis symptoms at 0.4 mg/kg, po qd for 7 days", "details": "168 h, read-out: INH", "units": {"inhibition in vivo at 0.4 mg/kg": "%"}}
{"smiles": "CN(Cc1cnc2nc(N)nc(N)c2n1)c1ccc(C(=O)N[C@@H](CCC(=O)O)C(=O)O)cc1", "note": "[METHOTREXATE]", "inhibition in vivo at 0.4 mg/kg": 53.1}
{"target": "T1, Nuclear receptor ROR-gamma (Homo sapiens, UniProt P51449)", "T1 sequence (P51449 whole entry)": "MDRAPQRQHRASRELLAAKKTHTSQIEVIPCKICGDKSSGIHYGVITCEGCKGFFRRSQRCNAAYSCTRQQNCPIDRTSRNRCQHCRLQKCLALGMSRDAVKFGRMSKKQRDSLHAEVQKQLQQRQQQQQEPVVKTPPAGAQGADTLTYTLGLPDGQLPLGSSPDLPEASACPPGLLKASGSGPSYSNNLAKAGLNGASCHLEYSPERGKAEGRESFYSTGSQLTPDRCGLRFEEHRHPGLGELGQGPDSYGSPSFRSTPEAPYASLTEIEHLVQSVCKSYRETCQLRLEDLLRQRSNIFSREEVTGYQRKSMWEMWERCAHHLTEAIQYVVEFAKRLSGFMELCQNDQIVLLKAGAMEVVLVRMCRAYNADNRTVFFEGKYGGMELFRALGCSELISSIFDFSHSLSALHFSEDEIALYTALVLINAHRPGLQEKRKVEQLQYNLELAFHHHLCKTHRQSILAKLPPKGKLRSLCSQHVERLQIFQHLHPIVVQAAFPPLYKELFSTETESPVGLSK", "details": "not given", "units": {"IC50": "nM"}}
{"smiles": "CC(=O)Nc1ccc(Nc2nc(Oc3c(Cl)cccc3C(F)(F)F)nc(-c3ccc(C(F)(F)F)cc3)n2)cc1", "IC50": 32}
{"smiles": "Cc1cccc(-c2nc(Nc3ccc(C(=O)O)cc3)nc(Oc3c(Cl)cccc3Cl)n2)c1", "IC50": 241}
{"smiles": "CC(C)(C)c1ccc(-c2nc(Nc3ccc(C(=O)O)cc3)nc(Oc3c(Cl)cccc3Cl)n2)cc1", "IC50": 99.5}
{"smiles": "CNC(=O)c1ccc(Nc2nc(Oc3c(Cl)cccc3Cl)nc(-c3ccc(OC)cc3)n2)cc1", "IC50": 12.9}
{"smiles": "CNC(=O)c1ccc(Nc2nc(Oc3c(Cl)cccc3C(F)(F)F)nc(-c3ccc(OC)cc3)n2)cc1", "IC50": 16.7}
{"smiles": "O=C(O)c1ccc(Nc2nc(Oc3c(Cl)cccc3Cl)nc(C3CCCC3)n2)cc1", "IC50": 3420}
{"smiles": "COc1ccc(-c2nc(Nc3cccc(C(=O)O)c3)nc(Oc3c(Cl)cccc3Cl)n2)cc1", "IC50": 91}
{"smiles": "O=C(O)c1ccc(Nc2nc(Oc3c(Cl)cccc3Cl)nc(-c3ccc(F)cc3)n2)cc1", "IC50": 152}
{"smiles": "Cc1ccc(-c2nc(Nc3ccc(C(=O)O)cc3)nc(Oc3c(Cl)cccc3Cl)n2)cc1", "IC50": 61.7}
{"smiles": "CNS(=O)(=O)c1ccc(Nc2nc(Oc3c(Cl)cccc3Cl)nc(-c3ccc(OC)cc3)n2)cc1", "IC50": 32.5}
{"smiles": "COc1ccc(-c2nc(Nc3ccc(C(N)=O)cc3)nc(Oc3c(Cl)cccc3Cl)n2)cc1", "IC50": 13.3}
{"smiles": "COc1ccc(-c2nc(Nc3ccc(C(=O)O)c(O)c3)nc(Oc3c(Cl)cccc3Cl)n2)cc1", "IC50": 83}
{"smiles": "COc1ccc(-c2nc(Nc3ccc(C(C)C(=O)O)cc3)nc(Oc3c(Cl)cccc3Cl)n2)cc1", "note": "(stereo unspecified)", "IC50": 99.5}
{"smiles": "CNC(=O)c1ccc(Nc2nc(Oc3c(Cl)cccc3Cl)nc(-c3ccc(C(F)(F)F)cc3)n2)cc1", "IC50": 22.5}
{"smiles": "COc1ccc(-c2nc(NC3CCC(C(=O)O)C3)nc(Oc3c(Cl)cccc3Cl)n2)cc1", "note": "(stereo unspecified)", "IC50": 822}
{"smiles": "O=C(O)c1ccc(Nc2nc(Oc3c(Cl)cccc3Cl)nc(-c3ccc(C(F)(F)F)cc3)n2)cc1", "IC50": 68.6}
{"smiles": "O=C(O)c1ccc(Nc2nc(Oc3c(Cl)cccc3Cl)nc(C3CCCCC3)n2)cc1", "IC50": 596}
{"target": "T1, Nuclear receptor ROR-gamma", "details": "not given", "remark": "another data set of the same source", "units": {"IC50": "nM"}}
{"smiles": "O=C(O)c1ccc(Nc2nc(Oc3c(Cl)cccc3Cl)nc(-c3ccc(C(F)(F)F)cc3)n2)cc1", "IC50": 1620}
